Read-outs that look alike come from different tables or passages of the source.
Test system: NF-κB activation
Assay: NF-κB activation reporter assay (pNFκB-Luc luciferase) under TNF-α stimulation
Type: cell-based, human
Conditions: for inhibition at 1 µg/mL / inhibition at 10 µg/mL: Homo sapiens, read-out: The rate of inhibitory activity against NF-κB activation (%)
Experimental: Using a transfection reagent (Effectene; QIAGEN), the human hepatoma cell strain HepG2 or the human hysterocarcinoma cell strain HeLa was transfected with the firefly luciferase gene (Luc) contained plasmid (pNF κB-Luc Reporter Plasmid; […]) which contained oligonucleotide having five tandem copies of NF-κB binding sequences ([…]) on a upstream region of Luc, according to the QUAGEN's protocol and it was incuvated for 6-24 hours. After addition of TNF-α (40 ng/ml) with or without the test compound, the cells were incuvated for 4 hours, and intracellular luciferase activity was measured with PicaGene LT (TOYO INK MFG Co., Ltd.) and chemical luminescence measurement device ([…]luor Plus; TECAN). The inhibition ratio was measured as a ratio to the value of the luciferase activity without the test compound.

[1] = Concentration of the agent: 1 μg/mL, HepG2 or HeLa cells, TNF-α 40 ng/ml, 4 hours
[2] = Concentration of the agent: 10 μg/mL, HepG2 or HeLa cells, TNF-α 40 ng/ml, 4 hours

Compound | inhibition at 1 µg/mL [1] | inhibition at 10 µg/mL [2] | further results
5-Bromo-2-hydroxy-N-(2-phenethyl)benzamide [Compound 2] | – | – | The rate of inhibitory activity against NF-κB activation (%) [1]: 18.6%; The rate of inhibitory activity against NF-κB activation (%) [2]: 83.2%
5-Bromo-N-(3,5-dichloro)phenyl-2-hydroxybenzenesulfonamide [Compound 10] | – | – | The rate of inhibitory activity against NF-κB activation (%) [1]: 7.1%; The rate of inhibitory activity against NF-κB activation (%) [2]: 78.6%
O=C(NCc1cc(C(F)(F)F)cc(C(F)(F)F)c1)c1cc(Br)ccc1O [Compound 1, N-{[3,5-bis(trifluoromethyl)phenyl]methyl}-5-bromo-2-hydroxybenzamide] | -33.6% | 54.4% | –
O=C(NC1Cc2ccc(C(=O)N3CCOCC3)cc2C1)c1cc(Br)ccc1O (stereo not drawn) [Compound 3, 5-Bromo-2-hydroxy-N-[5-(morpholinocarbonyl)indan-2-yl]benzamide] | 54.2% | 68.4% | –
O=C(CC(c1ccc(O)cc1)c1ccc(Cl)cc1)c1c(O)cccc1O (stereo not drawn) [Compound 4, 3-(4-Chlorophenyl)-1-(2,6-dihydroxyphenyl)-3-(4-hydroxyphenyl)propan-1-one] | 42.9% | 94.1% | –
COc1ccc(CCC(=O)c2cc(Cl)ccc2O)cc1 [Compound 5, 1-(5-Chloro-2-hydroxyphenyl)-3-(4-methoxyphenyl)propan-1-one] | 33.3% | 98% | –
COc1ccc(C(=O)C=Cc2ccccc2OC)c(O)c1 [Compound 6, 1-(2-Hydroxy-4-methoxyphenyl)-3-(2-methoxyphenyl)propen-1-one] | 27.8% | 61.9% | –
Cc1ccc(O)c(C(=O)C=Cc2ccc3c(c2)OCCCO3)c1 [Compound 7, 3-(3,4-Dihydro-2H-benzo[b][1,4]dioxepin-7-yl)-1-(2-hydroxy-5-methylphenyl)propen-1-one] | 30.4% | 68.7% | –
COCc1ccc(C(=O)C=Cc2ccc3c(c2)OCCCO3)c(O)c1 [Compound 8, 3-(3,4-Dihydro-2H benzo[b][1,4]dioxepin-7-yl)-1-[2-hydroxy-4-(methoxylmethyl)phenyl]propen-1-one] | 35.3% | 59.9% | –
C=C(c1ccc(Cl)cc1)c1cc(Cl)ccc1O [Compound 9, 4-Chloro-2-[(4-chlorophenyl)ethen-2-yl]phenol] | 21.9% | 99.2% | –
O=C(Nc1ccccc1O)c1cc(C(F)(F)F)cc(C(F)(F)F)c1 [Compound 11, 3,5-Bis(trifluoromethyl)-N-(2-hydroxyphenyl)benzamide] | 28.4% | 44.1% | –
O=C(Nc1cc(Cl)ccc1O)c1cc(Cl)cc(Cl)c1 [Compound 12, N-(5-Chloro-2-hydroxyphenyl)-3,5-dichlorobenzamide] | 68.6% | 87.3% | –
O=S(=O)(Nc1cc(Cl)ccc1O)c1cc(Cl)cc(Cl)c1 [Compound 13, N-(5-Chloro-2-hydroxyphenyl)-3,5-dichlorobenesulfonamide] | – | – | The rate of inhibitory activity against NF-κB activation (%) [1]: −7.1%; The rate of inhibitory activity against NF-κB activation (%) [2]: 63.8%
Oc1ccc(Br)cc1CNc1cc(Cl)cc(Cl)c1 [Compound 14, N-[(5-Bromo-2-hydroxyphenyl)methyl]-3,5-dichloroaniline] | 21.7% | 98.9% | –
O=C(NN=Cc1ccc(O)cc1O)c1cc(Cl)ccc1O [Compound 15, 5-Chloro-2-hydroxybenzoic acid (2,4-dihydroxybenzylidene)hydrazide] | 15.2% | 70.4% | –
CN(C(=O)c1cc(Cl)ccc1O)c1cc(C(F)(F)F)cc(C(F)(F)F)c1 [Compound 16, N-[3,5-Bis(trifluoromethyl)phenyl]-5-chloro-2-hydroxy-N-methylbenzamide] | 36.4% | 91.6% | –
O=C(c1cc(Br)ccc1O)N1CCCc2ccc(C(F)(F)F)cc21 [Compound 17, 1-(5-Bromo-2-hydroxy)benzoyl-7-(trifluoromethyl)-1,2,3,4-tetrahydroquinoline] | – | – | The rate of inhibitory activity against NF-κB activation (%) [1]: 19.9%; The rate of inhibitory activity against NF-κB activation (%) [2]: 96.5%
O=C(Nc1cc(Cl)cc(Cl)c1)c1c(O)ccc2ccccc12 [Compound 18, N-(3,5-Dichlorophenyl)-2-hydroxy-1-naphthamide] | 85.3% | 90.2% | –
O=C(Nc1cc(Cl)cc(Cl)c1)c1cc2ccccc2cc1O [Compound 19, N-(3,5-Dichlorophenyl)-3-hydroxy-2-naphthamide] | -55.4% | 95.1% | –
COc1cc(NC(=O)c2cc3ccccc3cc2O)cc(OC)c1 [Compound 20, N-(3,5-Dimethoxyphenyl)-3-hydroxy-2-naphthamide] | -12.1% | 86.8% | –
O=C(Nc1cc(C(F)(F)F)cc(C(F)(F)F)c1)c1ccc2ccccc2c1O [Compound 21, N-[3,5-Bis(trifluoromethyl)phenyl]-1-hydroxy-2-naphthamide] | 89.6% | 95% | –
O=C(Nc1ccc(S(=O)(=O)F)cc1)c1ccc2ccccc2c1O [Compound 22, {[(1-Hydroxynaphthalen-2-yl)carbonyl]amino}benzenesulfonyl fluoride] | – | – | The rate of inhibitory activity against NF-κB activation (%) [1]: 37.0%; The rate of inhibitory activity against NF-κB activation (%) [2]: 92.9%
O=C(Nc1ccc(S(=O)(=O)F)cc1)c1cc(N=Nc2cc(Cl)ccc2Cl)c2ccccc2c1O [Compound 23, 4-({[4-(2,5-Dichlorophenyl)azo-1-hydroxynaphthalen-2-yl]-carbonyl}amino)benzenesulfonyl fluoride] | – | – | inhibition at 1 µg/mL (4 h): 75.7%; inhibition at 10 µg/mL (4 h): 96.6%
O=C(Nc1cc(C(F)(F)F)cc(C(F)(F)F)c1)c1cc(Cl)cnc1O [Compound 24, N-[3,5-Bis(trifluoromethyl)phenyl]-5-chloro-2-hydroxypyridine-3-carboxamide] | 58.1% | 82.2% | –
O=C(Nc1cc(C(F)(F)F)ccc1Cl)c1cc(Cl)cnc1O [Compound 25, N-[2-Chloro-5-(trifluoromethyl)phenyl]-5-chloro-2-hydroxynicotinamide] | 85.4% | 86.9% | –
O=C(Nc1cc(C(F)(F)F)cc(C(F)(F)F)c1)c1ncccc1O [Compound 27, N-[3,5-Bis(trifluoromethyl)phenyl]-3-hydroxypyridine-2-carboxamide] | 68.5% | 47.3% | –
O=C(Nc1cc(C(F)(F)F)cc(C(F)(F)F)c1)c1c(O)[nH]c2cc(Cl)ccc12 [Compound 28, N-[3,5-Bis(trifluoromethyl)phenyl]-6-chloro-2-hydroxyindole-3-carboxamide] | 16.3% | 41.7% | –
O=C(Nc1cc(C(F)(F)F)cc(C(F)(F)F)c1)c1nc2ccccc2nc1O [Compound 29, N-[3,5-Bis(trifluoromethyl)phenyl]-3-hydroxyquinoxaline-2-carboxamide] | 46.3% | 73% | –
O=C(Nc1ccc(Cl)cc1)c1cc2c(cc1O)[nH]c1ccccc12 [Compound 30, N-(4-Chlorophenyl)-2-hydroxy-9H-carbazole-3-carboxamide] | 76.5% | 98.1% | –
O=C(Nc1cccc2ccccc12)c1ccccc1O [Compound 31, 2-Hydroxy-N-(1-naphthyl)benzamide] | 13.3% | 93.2% | –

Reference: patent publication US8097759B2, “Inflammatory cytokine release inhibitor” (Institute of Medicinal Molecular Design, Inc., priority 2000, dated 2012)
